Here are results for 24 compounds from patent US7423149B2, “Substituted n-aryl amidines as selective D1 dopamine receptor antagonists for the treatment of obesity and CNS disorders” (Schering Corporation, priority 2003, dated 2008).

Each structure is given as a SMILES string.

T2 sequence (P21728 whole entry): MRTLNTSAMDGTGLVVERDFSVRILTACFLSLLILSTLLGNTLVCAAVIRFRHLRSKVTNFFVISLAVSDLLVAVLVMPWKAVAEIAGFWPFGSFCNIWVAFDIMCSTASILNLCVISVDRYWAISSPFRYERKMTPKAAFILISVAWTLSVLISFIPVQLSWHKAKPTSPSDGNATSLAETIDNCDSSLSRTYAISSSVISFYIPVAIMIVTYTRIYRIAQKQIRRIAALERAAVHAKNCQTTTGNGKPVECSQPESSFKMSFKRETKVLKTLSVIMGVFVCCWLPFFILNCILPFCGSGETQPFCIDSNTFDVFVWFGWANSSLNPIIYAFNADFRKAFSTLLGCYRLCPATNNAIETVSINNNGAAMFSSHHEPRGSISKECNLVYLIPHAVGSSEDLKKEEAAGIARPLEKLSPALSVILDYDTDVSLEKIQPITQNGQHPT

The target in one experiment is T1, human Dopamine D2 receptor (Homo sapiens, UniProt P14416).
T1 construct: expressed in transfected cells; host or cells: Ltk- cells (mouse fibroblasts), membrane preparation
T1 sequence (P14416 whole entry): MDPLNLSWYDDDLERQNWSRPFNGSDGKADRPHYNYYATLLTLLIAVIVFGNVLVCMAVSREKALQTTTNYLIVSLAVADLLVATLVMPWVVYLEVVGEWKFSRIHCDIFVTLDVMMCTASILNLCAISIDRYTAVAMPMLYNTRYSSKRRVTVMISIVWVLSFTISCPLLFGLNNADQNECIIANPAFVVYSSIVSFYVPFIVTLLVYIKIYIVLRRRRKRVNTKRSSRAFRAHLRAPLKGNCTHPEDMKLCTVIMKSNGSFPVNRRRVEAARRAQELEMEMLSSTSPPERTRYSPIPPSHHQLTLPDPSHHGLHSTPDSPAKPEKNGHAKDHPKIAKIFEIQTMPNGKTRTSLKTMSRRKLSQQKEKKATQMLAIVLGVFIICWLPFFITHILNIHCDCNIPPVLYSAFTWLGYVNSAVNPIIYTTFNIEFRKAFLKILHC
Briefly: radioligand binding competition assay, displacement of [3H] Methylspiperone from D2 receptor (long variant, Ltk-cells membranes). The conditions noted are these: Ki for D2 divided by Ki for D1. The source says:
(§1) Biological Activity: Compounds from this disclosure have been biologically characterized by their ability to displace a known D1-like selective ligand, [3H]SCH 23390 from the human Dopamine D1 receptor, and a known D2-like selective ligand, [3H] Methylspiperone, from the human Dopamine D2 and D4 receptors.
(§2) Affinity values (Ki) of compounds at human dopamine receptors were ascertained using radioligand binding competition assays. Cells expressing D1 (Ltk-cells), D2 (long variant, Ltk-cells), D4 (CHO cells) and D5 (GH4C1 cells) receptors were lysed in hypotonic buffer for membrane preparation. Membranes were incubated with various concentrations of test compound and 1 nM [3H] SCH 23390 (D1 and D5) and 0.2 nM [3H] Methylspiperone for (D2 and D4) assays. Non-specific binding was defined as binding in the presence of 10 micromolar of SCH 23390 for D1 and D5 assays and 10 micromolar butaclamol for D2 and D4 assays. Following incubation to equilibrium (1 hour at room temperature), bound radioligand was separated from free by rapid filtration. Bound radioactivity on the dried filters was quantified by liquid scintillation counting.
(§3) Selectivity is determined by dividing Ki for D2, D4 or D5 receptors by Ki for D1 receptor.
For the compound `N=C(/C=C/c1ccc(N2CCNCC2)cc1Cl)Nc1ccc(Cl)cc1` [Example 42, (E)-N-(4-Chlorophenyl)-3-[2-chloro-4(piperazin-1-yl)phenyl]-2-propenimidamide], the “D2:D1 ratio value” came out at 1258.5.

A further experiment has as its target T2, human Dopamine D1 receptor (Homo sapiens, UniProt P21728).
T2 construct: expressed in transfected cells; host or cells: Ltk- cells (mouse fibroblasts), membrane preparation
Briefly: radioligand binding competition assay, displacement of [3H]SCH 23390 from D1 receptor (Ltk-cells membranes).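 As to D1 binding and D2:D1 Selectivity: under 5 nM class also requires D2 to D1 selectivity above 500.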 The conditions noted are these: class combines Ki (D1) and, for A and B, D2:D1 selectivity (Ki D2 / Ki D1); read-out: D1 binding and D2:D1 Selectivity.
From the text: as §1, §2, §3
Background: In a radioligand displacement assay an active substance lowers the binding of a labelled ligand.
Take `N=C(/C=C/c1ccc(N2CCNCC2)cc1Cl)Nc1ccc(Cl)cc1` [Example 42, (E)-N-(4-Chlorophenyl)-3-[2-chloro-4(piperazin-1-yl)phenyl]-2-propenimidamide]: the Ki was < 0.005 µM.
Same read-out and setting: the result for `CN1CCN(c2ccc3cc(C(=N)Nc4ccc(Cl)cc4)ccc3c2)CC1` [Example 112] reads 0.05 to 10 µM.
Same read-out and setting: the result for `COc1ccccc1C1CCN(c2ccc(/C=C/C(=N)Nc3ccc(Cl)cc3)cc2)CC1` [Example 113] reads 0.05 to 10 µM; that for `N=C(/C=C/c1ccccc1)Nc1ccc(Cl)cc1` [Example 114], 0.05 to 10 µM.
On to `CCCCN(CCCC)c1ccc(/C=C/C(=N)Nc2ccc(Cl)cc2)cc1` [Example 115], for which the Ki was 0.05 to 10 µM.
Still for that read-out and setting: the result for `N=C(/C=C/c1ccc(CN2CCOCC2)cc1)Nc1ccc(Cl)cc1` [Example 116] reads 0.05 to 10 µM; that for `COc1ccc(NC(=N)/C=C/c2ccccc2)cc1` [Example 117], 0.05 to 10 µM; that for `N=C(Nc1ccc(Cl)cc1)c1ccc(-c2ccccc2)cc1` [Example 118], 0.05 to 10 µM.
In the case of `COc1ccc2cc(C(=N)Nc3ccc(Cl)cc3F)ccc2c1` [Example 119], the Ki was in the range of 0.05 to 10 µM.
Regarding `N=C(/C=C/c1ccc(-c2cccc(C(=O)O)c2)cc1)Nc1ccc(Cl)cc1` [Example 120], the Ki lay in the range of 0.05 to 10 µM.
The same measure, in the same setting: the result for `COc1ccc(NC(=N)/C=C/c2ccc(Cc3cccnc3)cc2)cc1` [Example 121] reads 0.05 to 10 µM.
On to `N=C(/C=C/c1ccc(-c2ccc(C(F)(F)F)cc2)cc1)Nc1ccc(Cl)cc1` [Example 122], for which the Ki was in the range of 0.05 to 10 µM.
On the same count and under the same terms, the result for `N=C(/C=C/c1ccc(N2CCNCC2)cc1Cl)Nc1ccc(O)c(Cl)c1` [Example 123] reads 0.05 to 10 µM.
Same read-out and setting: the result for `N=C(/C=C/c1ccc(Cc2cccnc2)cc1)Nc1ccc(OC(F)(F)F)cc1` [Example 124] reads 0.05 to 10 µM; that for `CO/N=C(/C)c1ccc(-c2ccc(/C=C/C(=N)Nc3ccc(Cl)cc3)cc2)cc1` [Example 125, N-(4-chloro-phenyl)-3-[4′-(1-methoxyimino-ethyl)-biphenyl-4-yl]-acrylamidine], 0.05 to 10 µM.
On the same count and under the same terms, the result for `N=C(/C=C/c1ccc(N2CCCC3CCCCC32)cc1)Nc1ccc(Cl)cc1` (centres unmarked) [Example 126] reads 0.05 to 10 µM; that for `N=C(Nc1ccc(Cl)cc1)c1ccc2ccccc2n1` [Example 127], 0.05 to 10 µM.
`N=C(/C=C/c1ccc(Cc2cccnc2)cc1)Nc1ccc(Cl)c(O)c1` [Example 128]: the Ki was 0.05 to 10 µM.
Still for that read-out and setting: the result for `COc1ccc(/C=C/C(=N)Nc2ccc(OC)c(OC)c2)cc1` [Example 129] reads 0.05 to 10 µM.
The same measure, in the same setting: the result for `COc1ccc(/C=C/C(=N)Nc2ccc(C)c([N+](=O)[O-])c2)cc1` [Example 130] reads 0.05 to 10 µM.
Same read-out and setting: the result for `CC(C)(C)c1ccc(-c2ccc(/C=C/C(=N)Nc3ccc(Cl)cc3)cc2)cc1` [Example 131] reads 0.05 to 10 µM; that for `N=C(Cc1ccc2ccccc2c1)Nc1ccc(Cl)cc1` [Example 132], 0.05 to 10 µM.
With `COc1ccc(/C=C/C(=N)Nc2ccc(C(C)(C)C)cc2)cc1` [Example 133], the Ki was 0.05 to 10 µM.
On the same count and under the same terms, the result for `N=C(CCc1ccc(Cc2c[nH]cn2)cc1)Nc1ccc(Cl)cc1` [Example 134] reads 0.05 to 10 µM.

Staying with this experiment, now noted: human D1 receptor, [3H] SCH 23390; read-out: Ki (D1) value.
Consider `N=C(/C=C/c1ccc(N2CCNCC2)cc1Cl)Nc1ccc(Cl)cc1` [Example 42, (E)-N-(4-Chlorophenyl)-3-[2-chloro-4(piperazin-1-yl)phenyl]-2-propenimidamide], for which the Ki is 0.0009 µM.
